Experimental data published in patent EP4624466A1, “DEGRADER FOR DECOMPOSING CMET PROTEIN, AND PHARMACEUTICAL COMPOSITION COMPRISING SAME” (Innocure Therapeutics, Inc., priority 2022, dated 2024).

What was measured:
c-MET [1] = biological target: T1, c-MET (Homo sapiens, UniProt P08581); experiment: c-MET protein degradation (Simple Western), MKN-45; type: cell-based; parameters: assess the resolution of the compound of the present invention for c-MET expressed in cells; endogenous in cells; host or cells: MKN45 (human gastric cancer); conditions: c-MET overexpressing gastric cancer cell line MKN-45, treated 24 hours; Table 2
T1 sequence (P08581 25-1390): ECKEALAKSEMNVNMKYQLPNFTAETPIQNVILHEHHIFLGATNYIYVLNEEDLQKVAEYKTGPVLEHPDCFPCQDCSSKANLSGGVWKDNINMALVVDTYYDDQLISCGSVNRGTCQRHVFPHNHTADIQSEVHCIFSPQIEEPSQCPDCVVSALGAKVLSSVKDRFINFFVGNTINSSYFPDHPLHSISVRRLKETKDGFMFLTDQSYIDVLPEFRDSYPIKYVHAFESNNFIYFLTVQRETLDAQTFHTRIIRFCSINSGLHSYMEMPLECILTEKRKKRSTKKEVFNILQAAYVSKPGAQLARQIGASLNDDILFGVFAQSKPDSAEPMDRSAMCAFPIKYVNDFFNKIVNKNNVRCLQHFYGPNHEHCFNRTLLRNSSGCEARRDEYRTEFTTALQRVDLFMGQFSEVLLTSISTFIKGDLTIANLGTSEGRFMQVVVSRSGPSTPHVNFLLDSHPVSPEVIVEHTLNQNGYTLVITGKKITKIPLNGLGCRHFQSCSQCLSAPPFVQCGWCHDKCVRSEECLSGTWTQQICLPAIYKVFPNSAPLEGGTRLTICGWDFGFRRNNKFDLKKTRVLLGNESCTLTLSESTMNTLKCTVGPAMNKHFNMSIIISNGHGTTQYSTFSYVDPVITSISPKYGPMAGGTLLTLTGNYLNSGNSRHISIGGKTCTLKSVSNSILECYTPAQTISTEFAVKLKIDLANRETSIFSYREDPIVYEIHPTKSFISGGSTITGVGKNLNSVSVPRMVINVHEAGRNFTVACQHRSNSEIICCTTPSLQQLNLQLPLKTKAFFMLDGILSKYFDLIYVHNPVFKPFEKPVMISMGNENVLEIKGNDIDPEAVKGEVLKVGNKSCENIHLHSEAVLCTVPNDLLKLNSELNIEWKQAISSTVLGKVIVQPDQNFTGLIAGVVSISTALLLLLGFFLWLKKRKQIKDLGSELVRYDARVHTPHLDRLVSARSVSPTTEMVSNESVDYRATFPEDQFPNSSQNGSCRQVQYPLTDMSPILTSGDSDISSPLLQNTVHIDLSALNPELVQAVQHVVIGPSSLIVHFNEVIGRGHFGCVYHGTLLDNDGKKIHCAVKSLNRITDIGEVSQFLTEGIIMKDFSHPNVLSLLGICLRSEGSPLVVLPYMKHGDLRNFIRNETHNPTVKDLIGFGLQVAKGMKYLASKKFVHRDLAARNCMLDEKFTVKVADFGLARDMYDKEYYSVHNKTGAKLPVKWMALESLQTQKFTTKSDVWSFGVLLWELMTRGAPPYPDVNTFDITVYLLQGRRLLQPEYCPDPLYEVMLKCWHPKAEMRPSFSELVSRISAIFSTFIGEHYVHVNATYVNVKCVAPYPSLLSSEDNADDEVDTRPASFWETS
Summary of the method: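 Cells treated 24 h (gastric lines) or 48 h (lung lines); 3 µg lysate protein analysed by capillary Simple Western with anti-c-MET, normalized to GAPDH and expressed as % of 0.1% DMSO; DC50 from expression change.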

MKN-45 = experiment: Cell viability / antiproliferative assay (WST-8), MKN-45; conditions: Homo sapiens, MKN-45, 72 h, read-out: MKN-45 IC50;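 note: MKN-45 is a human gastric cancer line overexpressing c-MET, growth inhibition read as WST-8 formazan absorbance at 450 nm after 2 h dye incubation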
Hs746T = experiment: Cell viability / antiproliferative assay (WST-8), Hs746T; type: cell-based; conditions: Homo sapiens, Hs746T cells, 72 hours, Table 2
Experimental: (§2) c-MET overexpressing human gastric cancer cell lines [MKN45] and [SNU638] were cultured in RPMI medium with 10% fetal bovine serum, penicillin (100U/ml), and streptomycin (100mg/ml), and c-MET exon 14 skipping mutant human gastric cancer cell lines [Hs746T] were cultured in DMEM media. The c-MET overexpressing human lung cancer cell line EBC-1 was cultured in MEM media with the addition of 10% fetal bovine serum, penicillin (100U/ml), and streptomycin (100mg/ml). […] The compound synthesized in accordance with the present invention was prepared with a raw material solution of 10 mM dissolved in DMSO (dimethyl sulfoxide), and was sequentially diluted and processed.
(§3) In order to observe the inhibitory activity on cell growth, cells were dispensed in a 96-well plate at a concentration of 5,000 cells/well, and then treated with the compound prepared at various concentrations for 72 hours. The viability of the cells was calculated using GraphicPad Prism 8.0 software by adding 10 ml per well of WST-8 (water soluble tetrazolium salt) sample, which reacts with dehydrogenase present in the electron transport system of mitochondria to produce formazon, incubated for 2 hours, and measured absorbance at 450 nm.

EBC-1 = experiment: Cell viability / antiproliferative assay (WST-8), EBC-1; type: cell-based, human; conditions: Homo sapiens, EBC-1, 72 h, read-out: EBC-1 IC50
Experimental: as §2, §3

SNU-638 = experiment: Cell viability / antiproliferative assay (WST-8), SNU-638; type: cell-based, human; conditions: Homo sapiens, SNU-638, 72 h, read-out: SNU-638 IC50
Experimental: as §2, §3

c-MET [2] = biological target: T1, c-MET; experiment: c-MET protein degradation (Simple Western), SNU-638; type: cell-based; parameters: assess the resolution of the compound of the present invention for c-MET expressed in cells; endogenous in cells; host or cells: SNU638 (human gastric cancer); conditions: c-MET overexpressing gastric cancer cell line SNU-638, treated 24 hours; Table 2
Experimental: (§1) In order to assess the resolution of the compound of the present invention for c-MET expressed in cells, cells were dispensed in a 12-well plate at a concentration of 2 × 10^5 cells/well, and then gastric cancer cell lines were treated with samples for 24 hours and lung cancer cell lines were treated for 48 hours. Cell lysates were collected using a scraper on ice, centrifuged at 4°C15,000 rpm for 30 min to obtain a protein-containing supernatant. Protein expression was then measured using the Simple Western Automated Western Blot System Abby instrument using 3 µg of protein for each sample. SDS and heat-induced denaturation proteins were separated by molecular weight, attached to capillary, reacted with anti-c-MET or anti-GAPDH antibodies, which are primary antibodies, and then reacted with HRP-conjugated secondary antibodies, and analyzed the protein expression signal with compass software. Protein expression was normalized based on the expression value of GAPDH, and protein development in each sample was measured as a percentage (%) based on 100% of samples treated with 0.1% DMSO carriers, and DC50 (concentration of a compound where 50% protein inhibition is achieved) was calculated from the change in protein expression amount due to compound treatment.

c-MET [3] = biological target: T1, c-MET; experiment: c-MET protein degradation (Simple Western), EBC-1; type: cell-based; parameters: assess the resolution of the compound of the present invention for c-MET expressed in cells; endogenous in cells; host or cells: EBC-1 (human lung cancer); conditions: c-MET overexpressing lung cancer cell line EBC-1, treated 48 hours; Table 2
Experimental: as §1

c-MET [4] = biological target: T2, c-MET (Homo sapiens, UniProt P08581, DEL963-1009); experiment: c-MET protein degradation (Simple Western), Hs746T; type: cell-based; conditions: c-MET exon 14 skipping mutant gastric cancer cell line Hs746T, treated 24 hours; Table 2
T2 construct: assess the resolution of the compound of the present invention for c-MET expressed in cells; endogenous in cells; host or cells: Hs746T (human gastric cancer)
T2 sequence (P08581 with tags, fused parts or gaps DEL963-1009): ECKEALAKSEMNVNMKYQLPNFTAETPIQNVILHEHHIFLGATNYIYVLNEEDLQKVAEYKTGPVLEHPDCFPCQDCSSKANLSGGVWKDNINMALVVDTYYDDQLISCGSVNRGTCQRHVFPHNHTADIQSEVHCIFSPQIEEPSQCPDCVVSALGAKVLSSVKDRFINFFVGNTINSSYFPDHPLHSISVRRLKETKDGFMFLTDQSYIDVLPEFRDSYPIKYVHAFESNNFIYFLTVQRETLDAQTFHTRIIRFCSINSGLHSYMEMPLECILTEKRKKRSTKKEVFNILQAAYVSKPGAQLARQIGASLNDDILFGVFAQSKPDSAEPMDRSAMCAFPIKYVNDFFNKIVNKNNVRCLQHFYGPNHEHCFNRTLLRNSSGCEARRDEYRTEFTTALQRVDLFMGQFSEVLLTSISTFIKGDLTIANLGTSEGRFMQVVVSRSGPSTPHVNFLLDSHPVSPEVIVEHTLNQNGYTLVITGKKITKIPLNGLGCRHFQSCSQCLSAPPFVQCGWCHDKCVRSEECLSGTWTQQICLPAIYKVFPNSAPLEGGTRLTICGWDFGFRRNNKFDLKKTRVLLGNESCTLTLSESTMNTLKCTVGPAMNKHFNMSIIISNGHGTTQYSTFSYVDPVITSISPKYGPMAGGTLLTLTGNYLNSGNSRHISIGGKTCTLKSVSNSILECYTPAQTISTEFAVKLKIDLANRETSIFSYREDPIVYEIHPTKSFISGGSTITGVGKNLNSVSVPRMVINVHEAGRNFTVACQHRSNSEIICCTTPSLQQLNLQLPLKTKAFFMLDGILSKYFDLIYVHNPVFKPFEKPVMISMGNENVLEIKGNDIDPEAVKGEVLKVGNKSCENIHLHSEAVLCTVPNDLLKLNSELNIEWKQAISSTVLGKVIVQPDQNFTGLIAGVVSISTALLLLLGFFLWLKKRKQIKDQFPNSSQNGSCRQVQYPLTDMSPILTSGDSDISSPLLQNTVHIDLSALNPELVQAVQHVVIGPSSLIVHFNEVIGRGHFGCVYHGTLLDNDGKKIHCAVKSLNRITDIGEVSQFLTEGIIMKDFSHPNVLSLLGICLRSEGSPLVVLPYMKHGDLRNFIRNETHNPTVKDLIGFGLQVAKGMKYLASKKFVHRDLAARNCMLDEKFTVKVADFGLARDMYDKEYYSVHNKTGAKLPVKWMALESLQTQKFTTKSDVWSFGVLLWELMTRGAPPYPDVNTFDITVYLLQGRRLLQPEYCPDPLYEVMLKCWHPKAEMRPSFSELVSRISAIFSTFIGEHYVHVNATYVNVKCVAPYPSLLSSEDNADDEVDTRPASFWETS
T2 sequence (P08581 25-307 partner limits assumed): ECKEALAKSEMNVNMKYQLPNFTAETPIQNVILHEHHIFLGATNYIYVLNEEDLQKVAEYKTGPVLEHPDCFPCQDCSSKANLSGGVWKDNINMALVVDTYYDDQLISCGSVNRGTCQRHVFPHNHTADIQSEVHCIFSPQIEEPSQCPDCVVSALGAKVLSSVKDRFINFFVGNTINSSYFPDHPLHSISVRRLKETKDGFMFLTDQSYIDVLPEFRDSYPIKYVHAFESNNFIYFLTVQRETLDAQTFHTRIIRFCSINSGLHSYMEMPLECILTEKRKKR
Experimental: as §1

| SMILES | DC50 (c-MET [1]) [nM] | IC50 (MKN-45) [nM] | IC50 (Hs746T) [nM] | IC50 (EBC-1) [nM] | IC50 (SNU-638) [nM] | DC50 (c-MET [2]) [nM] | DC50 (c-MET [3]) [nM] | DC50 (c-MET [4]) [nM] |
| --- | --- | --- | --- | --- | --- | --- | --- | --- |
| Cc1nn(C2CCC(=O)NC2=O)c(=O)c2cc(N3CCN(C(=O)CCN4CCC(COc5cnc(-c6cccc(Cn7nc(-c8cccc(C#N)c8)ccc7=O)c6)nc5)CC4)CC3)ccc12 (centres unmarked) [ICT-0001.225] | < 100 | < 100 | < 100 |  |  |  |  |  |
| Cc1nn(C2CCC(=O)NC2=O)c(=O)c2cc(F)c(N3CCN(CC4CCN(C(=O)CN5CCC(COc6cnc(-c7cccc(Cn8nc(-c9cccc(C#N)c9)ccc8=O)c7)nc6)CC5)CC4)CC3)cc12 (centres unmarked) [ICT-0001204] | < 100 | < 100 | 100 to 1000 | < 100 |  |  |  |  |
| N#Cc1cccc(-c2ccc(=O)n(Cc3cccc(-c4ncc(OCC5CCN(CC(=O)NCCCC#Cc6ccc7c(=O)n(C8CCC(=O)NC8=O)ncc7c6)CC5)cn4)c3)n2)c1 (centres unmarked) [ICT-0001205] | < 100 | < 100 | 100 to 1000 |  |  |  |  |  |
| Cc1nn(C2CCC(=O)NC2=O)c(=O)c2ccc(N3CCN(c4ccc(NC(=O)CN5CCC(COc6cnc(-c7cccc(Cn8nc(-c9cccc(C#N)c9)ccc8=O)c7)nc6)CC5)cc4)CC3)cc12 (centres unmarked) [ICT-0001207] | < 100 | < 100 | 100 to 1000 | < 100 | < 100 | < 100 | < 100 | < 100 |
| N#Cc1cccc(-c2ccc(=O)n(Cc3cccc(-c4ncc(OCC5CCN(CCC(=O)N6CCN(c7ccc8c(=O)n(C9CCC(=O)NC9=O)ncc8c7)CC6)CC5)cn4)c3)n2)c1 (centres unmarked) [ICT-0001223] | < 100 | < 100 | < 100 |  |  |  |  |  |
| Cc1nn(C2CCC(=O)NC2=O)c(=O)c2ccc(N3CCN(C(=O)CCN4CCC(COc5cnc(-c6cccc(Cn7nc(-c8cccc(C#N)c8)ccc7=O)c6)nc5)CC4)CC3)cc12 (centres unmarked) [ICT-0001224] | < 100 | < 100 | < 100 |  |  |  |  |  |
| Cc1nn(C2CCC(=O)NC2=O)c(=O)c2ccc(N3CCN(C(=O)CCCN4CCC(COc5cnc(-c6cccc(Cn7nc(-c8cccc(C#N)c8)ccc7=O)c6)nc5)CC4)CC3)cc12 (centres unmarked) [ICT-0001227, 3-(1-(3-(5-((1-(4-(4-(2-(2,6-dioxopiperidin-3-yl)-4-methyl-1-oxo-1,2-dihydropetalazine-6-yl)piperazine-1-yl)4-oxobutyl)piperidine-4-yl)methoxy)pyrimidine-2-yl)benzyl)6-oxo-1,6-dihydropyridazine-3-yl)benzonitrile] |  | < 100 | < 100 |  |  |  |  |  |
| Cc1nn(C2CCC(=O)NC2=O)c(=O)c2cc(N3CCN(C(=O)CCCN4CCC(COc5cnc(-c6cccc(Cn7nc(-c8cccc(C#N)c8)ccc7=O)c6)nc5)CC4)CC3)ccc12 (centres unmarked) [ICT-0001228] | < 100 |  | 100 to 1000 |  |  |  |  |  |
| Cc1nn(C2CCC(=O)NC2=O)c(=O)c2ccc(N3CCN(C(=O)CCCCN4CCC(COc5cnc(-c6cccc(Cn7nc(-c8cccc(C#N)c8)ccc7=O)c6)nc5)CC4)CC3)cc12 (centres unmarked) [ICT-0001250] |  | < 100 | < 100 |  |  |  |  |  |
| Cc1nn(C2CCC(=O)NC2=O)c(=O)c2ccc(N3CCN(CCN4CCC(COc5cnc(-c6cccc(Cn7nc(-c8cccc(C#N)c8)ccc7=O)c6)nc5)CC4)CC3)cc12 (centres unmarked) [ICT-0001277, 3-(1-{[3-(5-{[1-(2-{4-[2-(2,6-dioxopiperidin-3-yl)-4-methyl-1-oxo-1,2-dihydrophthalazine-6-yl]piperazine-1-yl}ethyl)piperidine-4-il]methoxy}pyrimidine-2-yl)phenyl]methyl}6-oxo-1,6-dihydropyridazine-3-yl)benzonitrile] | < 100 | < 100 | < 100 | < 100 | < 100 | < 100 | < 100 | < 100 |
| N#Cc1cccc(-c2ccc(=O)n(Cc3cccc(-c4ncc(N5CCN(CC6CCN(c7ccc(NC8CCC(=O)NC8=O)cc7F)CC6)CC5)cn4)c3)n2)c1 (centres unmarked) [ICT-0001402] |  |  | < 100 | < 100 | < 100 | < 100 | < 100 | < 100 |
